Activity calls are given as the source filed them.
Assays:
[1] = target: Paired box protein Pax-8 (Homo sapiens, UniProt Q06710); assay: inhibitors of PAX8-driven TPO luciferase reporter, dose response, RMG-I cells, cherry-pick (AID 687027); type: functional, cell-based;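 further: luciferase reporter driven by Pax8 target thyroperoxidase promoter measured by SteadyGlo luminescence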
[2] = target: Beta Lactamase (Pseudomonas aeruginosa, UniProt Q932Y6); assay: beta-lactamase reporter inhibitor potency, dose response, artefact control for NOD2-RIPK2 interaction inhibitor project, BLA reporter cells, FRET fluorescence (AID 651552); type: functional, cell-based
[3] = inhibitors of intracellular T. cruzi replication, confirmation, NIH3T3 host cells, beta-gal luminescence (AID 2044); type: functional, cell-based;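 further: intracellular parasites grown in NIH/3T3 mouse fibroblasts as host cells; luminescent beta-galactosidase reporter signal from transgenic T. cruzi replicating inside host cells; inhibitors lower the luminescence signal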
[4] = Fluorescence-based cell-based high throughput dose response assay for inhibitors of the interaction of nucleotide-binding oligomerization domain containing 2 (NOD2) and the receptor-interacting serine-threonine kinase 2 (RIPK2).; type: functional; details: Homo sapiens
[5] = cytotoxicity toward NIH3T3 fibroblasts, dose response, counter-screen, cell-based, ATP luminescence, mouse fibroblasts (AID 2010); type: functional;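 further: cells exposed to compound for about 90 hours before reading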
[6] = target: Prothrombin (Bos taurus, UniProt P00735); assay: thrombin inhibition, dose response, biochemical, fluorescence polarization, uHTS hits (AID 602369); type: functional
[7] = target: 26S proteasome non-ATPase regulatory subunit 14 (Homo sapiens, UniProt O00487); assay: inhibition of proteasome subunit RPN11 – biochemical, fluorescence polarization, uHTS hits, confirmation (AID 602368); type: functional
[8] = target: 72 kDa type IV collagenase (Homo sapiens, UniProt P08253); assay: Dose Response validation of uHTS RPN11 inhibitor hits using a MMP-2 Fluorescence assay.; type: functional
[9] = Counterscreen for inhibitors of Trypanosoma brucei methionyl tRNA synthetase (MetRS): Luminescence-based cell-based high throughput dose response assay to identify compounds that are cytotoxic to Jurkat human T lymphocyte cells.; type: functional
[10] = target: T1, Sentrin-specific protease 1 (Homo sapiens, UniProt Q9P0U3); assay: Dose response confirmation of small molecule inhibitors of the catalytic domain of the SUMO protease, SENP1 in a FRET assay.; type: functional; details: read-out: IC50_Mean
T1 sequence (Q9P0U3 whole entry): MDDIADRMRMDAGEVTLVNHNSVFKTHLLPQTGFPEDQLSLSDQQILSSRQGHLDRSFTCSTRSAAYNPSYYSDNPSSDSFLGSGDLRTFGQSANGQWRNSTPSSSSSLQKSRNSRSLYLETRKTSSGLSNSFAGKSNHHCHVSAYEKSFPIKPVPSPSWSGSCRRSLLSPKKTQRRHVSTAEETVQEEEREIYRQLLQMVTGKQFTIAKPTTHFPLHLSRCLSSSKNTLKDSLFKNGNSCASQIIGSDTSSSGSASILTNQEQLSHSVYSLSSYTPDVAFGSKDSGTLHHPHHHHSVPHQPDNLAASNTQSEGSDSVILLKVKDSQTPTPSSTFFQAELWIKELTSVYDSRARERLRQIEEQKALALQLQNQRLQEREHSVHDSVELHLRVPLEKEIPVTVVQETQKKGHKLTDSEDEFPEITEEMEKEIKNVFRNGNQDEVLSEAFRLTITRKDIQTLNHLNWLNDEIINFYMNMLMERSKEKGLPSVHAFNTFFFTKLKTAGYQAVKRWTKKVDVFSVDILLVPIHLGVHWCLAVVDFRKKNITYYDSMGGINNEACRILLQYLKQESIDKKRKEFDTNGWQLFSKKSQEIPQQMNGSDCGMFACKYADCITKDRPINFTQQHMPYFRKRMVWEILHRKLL

[11] = target: T1, Sentrin-specific protease 1; assay: potency of human SENP1 inhibitors, dose response, biochemical, kinetic FRET (AID 651697); type: functional; details: read-out: IC50_Mean
[12] = HeLa cell cytotoxicity, dose response, cytotoxicity control for MgcRacGAP inhibitor project (AID 624300); type: functional
[13] = target: T2, Rac GTPase-activating protein 1 (Homo sapiens, UniProt Q9H0H5); assay: MgcRacGAP GTPase-activating activity inhibitors, confirmation, biochemical, ADP Hunter fluorescence, primary and confirmatory (AID 624330); type: functional
T2 sequence (Q9H0H5 whole entry): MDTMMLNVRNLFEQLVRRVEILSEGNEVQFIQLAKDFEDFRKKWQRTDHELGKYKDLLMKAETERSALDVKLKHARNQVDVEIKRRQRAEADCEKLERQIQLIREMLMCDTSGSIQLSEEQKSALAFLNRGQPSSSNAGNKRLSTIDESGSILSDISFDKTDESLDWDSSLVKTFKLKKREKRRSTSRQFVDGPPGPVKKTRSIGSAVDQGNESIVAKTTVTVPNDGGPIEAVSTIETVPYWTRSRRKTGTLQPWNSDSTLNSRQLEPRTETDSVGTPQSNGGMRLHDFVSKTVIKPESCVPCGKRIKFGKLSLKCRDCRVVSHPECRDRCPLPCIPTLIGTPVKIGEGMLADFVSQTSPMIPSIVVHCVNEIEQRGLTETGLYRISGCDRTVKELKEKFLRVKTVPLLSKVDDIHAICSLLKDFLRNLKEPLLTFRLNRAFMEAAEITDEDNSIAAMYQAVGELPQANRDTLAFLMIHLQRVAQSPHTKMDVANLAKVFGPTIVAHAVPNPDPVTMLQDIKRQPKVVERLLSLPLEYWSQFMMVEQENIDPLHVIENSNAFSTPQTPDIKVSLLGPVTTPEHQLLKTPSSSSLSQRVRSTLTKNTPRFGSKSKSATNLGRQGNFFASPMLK

[14] = target: T3, Latent membrane protein 1 (Human herpesvirus 4 (strain B95-8), UniProt P03230); assay: TES1-eGFP NF-kB reporter inhibition versus Tet-On dsRED, dose response, selectivity assay for LMP1 NF-kB inhibitor project, imaging, HEK293T, dual-color eGFP/dsRED, cherry-picks (AID 588398); type: functional, cell-based
T3 sequence (P03230 whole entry): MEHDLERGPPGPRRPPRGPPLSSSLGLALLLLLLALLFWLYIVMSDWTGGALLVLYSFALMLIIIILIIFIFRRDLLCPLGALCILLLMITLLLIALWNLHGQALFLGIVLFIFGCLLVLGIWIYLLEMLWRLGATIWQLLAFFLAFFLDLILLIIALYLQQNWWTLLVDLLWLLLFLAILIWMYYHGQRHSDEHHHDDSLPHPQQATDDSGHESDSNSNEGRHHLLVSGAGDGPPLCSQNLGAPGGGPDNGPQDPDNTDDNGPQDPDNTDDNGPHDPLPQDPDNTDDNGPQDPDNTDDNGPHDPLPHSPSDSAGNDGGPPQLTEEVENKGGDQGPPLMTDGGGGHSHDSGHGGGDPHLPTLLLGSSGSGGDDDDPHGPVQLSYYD

[15] = target: T4, Heat shock factor protein 1 (Mus musculus, UniProt P38532); assay: inhibition of MG132-induced HSE-luciferase signal, confirmation, cell-based, NIH3T3, luminescence, dose retest (AID 2382); type: functional;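 further: NIH3T3 fibroblasts with HSF1-driven luciferase reporter stressed by proteasome inhibitor MG132; luminescence from HSF1-driven luciferase expression after 8 hours of MG132 stress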
T4 sequence (P38532 whole entry): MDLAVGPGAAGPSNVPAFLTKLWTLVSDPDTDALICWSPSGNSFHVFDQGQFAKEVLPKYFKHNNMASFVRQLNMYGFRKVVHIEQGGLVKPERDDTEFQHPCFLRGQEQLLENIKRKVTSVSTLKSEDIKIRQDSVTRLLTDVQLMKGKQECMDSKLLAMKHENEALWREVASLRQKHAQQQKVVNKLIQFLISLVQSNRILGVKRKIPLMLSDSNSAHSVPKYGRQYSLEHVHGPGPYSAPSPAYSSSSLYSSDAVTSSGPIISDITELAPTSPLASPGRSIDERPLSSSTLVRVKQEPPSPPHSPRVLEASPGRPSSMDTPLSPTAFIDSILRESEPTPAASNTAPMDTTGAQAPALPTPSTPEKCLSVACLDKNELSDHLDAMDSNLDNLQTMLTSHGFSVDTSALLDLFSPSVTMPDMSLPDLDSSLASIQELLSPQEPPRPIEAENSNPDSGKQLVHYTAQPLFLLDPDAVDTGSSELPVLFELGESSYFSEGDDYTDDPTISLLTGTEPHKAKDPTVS

[16] = target: Photoreceptor-specific nuclear receptor (Homo sapiens, UniProt Q9Y5X4); type: functional, cell-based;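 further: CHO-S cells with Gal4-NCOR and VP16-NR2E3 two-hybrid luciferase reporter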
[17] = target: T5, Corticotropin-releasing factor receptor 2/Corticotropin-releasing factor-binding protein (Homo sapiens, UniProt P24387+Q13324); assay: activators of CRF receptor 2 with binding protein – uHTS hits, confirmation (AID 602473); type: functional; details: read-out: EC50_Mean
T5 sequence (Q13324 whole entry): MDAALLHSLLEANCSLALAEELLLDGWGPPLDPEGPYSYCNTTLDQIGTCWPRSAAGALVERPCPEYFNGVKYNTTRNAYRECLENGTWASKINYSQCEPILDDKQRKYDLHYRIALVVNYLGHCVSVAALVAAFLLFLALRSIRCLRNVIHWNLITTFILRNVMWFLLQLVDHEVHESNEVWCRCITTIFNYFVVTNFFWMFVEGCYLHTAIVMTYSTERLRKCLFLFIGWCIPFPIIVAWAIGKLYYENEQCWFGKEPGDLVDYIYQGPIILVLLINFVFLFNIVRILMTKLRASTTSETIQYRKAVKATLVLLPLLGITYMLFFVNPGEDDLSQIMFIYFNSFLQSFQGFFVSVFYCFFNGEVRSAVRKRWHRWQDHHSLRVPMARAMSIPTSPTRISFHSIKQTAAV
T5 sequence (P24387 whole entry): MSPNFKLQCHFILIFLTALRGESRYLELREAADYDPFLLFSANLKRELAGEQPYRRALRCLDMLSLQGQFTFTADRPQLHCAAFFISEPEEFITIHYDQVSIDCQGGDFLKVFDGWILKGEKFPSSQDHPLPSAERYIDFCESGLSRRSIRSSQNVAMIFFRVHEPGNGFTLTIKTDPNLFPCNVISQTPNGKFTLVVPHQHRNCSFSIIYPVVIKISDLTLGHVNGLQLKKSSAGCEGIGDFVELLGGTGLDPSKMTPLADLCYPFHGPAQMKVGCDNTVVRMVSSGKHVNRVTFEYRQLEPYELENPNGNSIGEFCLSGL

[18] = target: T5, Corticotropin-releasing factor receptor 2/Corticotropin-releasing factor-binding protein; assay: Dose Response confirmation of uHTS hits for small molecule antagonists of the CRF-binding protein and CRF-R2 receptor complex.; type: functional; details: read-out: IC50_Mean
[19] = tested on: INS1; assay: beta cell apoptosis inhibitors, cytokine rescue, dose response, luminescence, retest (AID 449756); type: functional, cell-based; details: Rattus norvegicus;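 further: cell death triggered by IL-1 beta plus TNF-alpha plus IFN-gamma mixture; protective hits raise ATP signal compared with cytokine alone wells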
[20] = CRF-BP/CRF-R2 complex antagonists, dose response, cell-based, uHTS hits, 384-well (AID 651639); type: functional, Homo sapiens; details: read-out: IC50_Mean
[21] = tested on: HEK293; assay: inhibitors of LMP1-driven NF-kB reporter, dose response, cell-based, HEK293, luciferase, cherry-pick (AID 588343); type: functional; details: Homo sapiens
[22] = target: Heat shock protein HSP 90-alpha (Homo sapiens, UniProt P07900); type: functional, organism-based
[23] = target: Nonstructural protein 1 (Influenza A virus, UniProt Q194T2); type: functional, Influenza A virus (A/California/07/2009(H1N1))
[24] = target: T6, Fatty acid synthase (Homo sapiens, UniProt P49327); assay: FAS thioesterase domain inhibitors, dose response, biochemical, endpoint fluorescence intensity, uHTS hits (AID 624327); type: functional;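 further: fluorescence from hydrolysis of an O-methyl fluorescein acyl ester substrate by the enzyme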
[25] = target: T6, Fatty acid synthase; assay: FAS thioesterase domain inhibitors, dose response, biochemical, kinetic fluorescence intensity (AID 624326); type: functional;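 further: rate of fluorescence rise from hydrolysis of a fluorogenic O-methyl fluorescein ester substrate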

T6 sequence (P49327 whole entry, the tested form may be a part): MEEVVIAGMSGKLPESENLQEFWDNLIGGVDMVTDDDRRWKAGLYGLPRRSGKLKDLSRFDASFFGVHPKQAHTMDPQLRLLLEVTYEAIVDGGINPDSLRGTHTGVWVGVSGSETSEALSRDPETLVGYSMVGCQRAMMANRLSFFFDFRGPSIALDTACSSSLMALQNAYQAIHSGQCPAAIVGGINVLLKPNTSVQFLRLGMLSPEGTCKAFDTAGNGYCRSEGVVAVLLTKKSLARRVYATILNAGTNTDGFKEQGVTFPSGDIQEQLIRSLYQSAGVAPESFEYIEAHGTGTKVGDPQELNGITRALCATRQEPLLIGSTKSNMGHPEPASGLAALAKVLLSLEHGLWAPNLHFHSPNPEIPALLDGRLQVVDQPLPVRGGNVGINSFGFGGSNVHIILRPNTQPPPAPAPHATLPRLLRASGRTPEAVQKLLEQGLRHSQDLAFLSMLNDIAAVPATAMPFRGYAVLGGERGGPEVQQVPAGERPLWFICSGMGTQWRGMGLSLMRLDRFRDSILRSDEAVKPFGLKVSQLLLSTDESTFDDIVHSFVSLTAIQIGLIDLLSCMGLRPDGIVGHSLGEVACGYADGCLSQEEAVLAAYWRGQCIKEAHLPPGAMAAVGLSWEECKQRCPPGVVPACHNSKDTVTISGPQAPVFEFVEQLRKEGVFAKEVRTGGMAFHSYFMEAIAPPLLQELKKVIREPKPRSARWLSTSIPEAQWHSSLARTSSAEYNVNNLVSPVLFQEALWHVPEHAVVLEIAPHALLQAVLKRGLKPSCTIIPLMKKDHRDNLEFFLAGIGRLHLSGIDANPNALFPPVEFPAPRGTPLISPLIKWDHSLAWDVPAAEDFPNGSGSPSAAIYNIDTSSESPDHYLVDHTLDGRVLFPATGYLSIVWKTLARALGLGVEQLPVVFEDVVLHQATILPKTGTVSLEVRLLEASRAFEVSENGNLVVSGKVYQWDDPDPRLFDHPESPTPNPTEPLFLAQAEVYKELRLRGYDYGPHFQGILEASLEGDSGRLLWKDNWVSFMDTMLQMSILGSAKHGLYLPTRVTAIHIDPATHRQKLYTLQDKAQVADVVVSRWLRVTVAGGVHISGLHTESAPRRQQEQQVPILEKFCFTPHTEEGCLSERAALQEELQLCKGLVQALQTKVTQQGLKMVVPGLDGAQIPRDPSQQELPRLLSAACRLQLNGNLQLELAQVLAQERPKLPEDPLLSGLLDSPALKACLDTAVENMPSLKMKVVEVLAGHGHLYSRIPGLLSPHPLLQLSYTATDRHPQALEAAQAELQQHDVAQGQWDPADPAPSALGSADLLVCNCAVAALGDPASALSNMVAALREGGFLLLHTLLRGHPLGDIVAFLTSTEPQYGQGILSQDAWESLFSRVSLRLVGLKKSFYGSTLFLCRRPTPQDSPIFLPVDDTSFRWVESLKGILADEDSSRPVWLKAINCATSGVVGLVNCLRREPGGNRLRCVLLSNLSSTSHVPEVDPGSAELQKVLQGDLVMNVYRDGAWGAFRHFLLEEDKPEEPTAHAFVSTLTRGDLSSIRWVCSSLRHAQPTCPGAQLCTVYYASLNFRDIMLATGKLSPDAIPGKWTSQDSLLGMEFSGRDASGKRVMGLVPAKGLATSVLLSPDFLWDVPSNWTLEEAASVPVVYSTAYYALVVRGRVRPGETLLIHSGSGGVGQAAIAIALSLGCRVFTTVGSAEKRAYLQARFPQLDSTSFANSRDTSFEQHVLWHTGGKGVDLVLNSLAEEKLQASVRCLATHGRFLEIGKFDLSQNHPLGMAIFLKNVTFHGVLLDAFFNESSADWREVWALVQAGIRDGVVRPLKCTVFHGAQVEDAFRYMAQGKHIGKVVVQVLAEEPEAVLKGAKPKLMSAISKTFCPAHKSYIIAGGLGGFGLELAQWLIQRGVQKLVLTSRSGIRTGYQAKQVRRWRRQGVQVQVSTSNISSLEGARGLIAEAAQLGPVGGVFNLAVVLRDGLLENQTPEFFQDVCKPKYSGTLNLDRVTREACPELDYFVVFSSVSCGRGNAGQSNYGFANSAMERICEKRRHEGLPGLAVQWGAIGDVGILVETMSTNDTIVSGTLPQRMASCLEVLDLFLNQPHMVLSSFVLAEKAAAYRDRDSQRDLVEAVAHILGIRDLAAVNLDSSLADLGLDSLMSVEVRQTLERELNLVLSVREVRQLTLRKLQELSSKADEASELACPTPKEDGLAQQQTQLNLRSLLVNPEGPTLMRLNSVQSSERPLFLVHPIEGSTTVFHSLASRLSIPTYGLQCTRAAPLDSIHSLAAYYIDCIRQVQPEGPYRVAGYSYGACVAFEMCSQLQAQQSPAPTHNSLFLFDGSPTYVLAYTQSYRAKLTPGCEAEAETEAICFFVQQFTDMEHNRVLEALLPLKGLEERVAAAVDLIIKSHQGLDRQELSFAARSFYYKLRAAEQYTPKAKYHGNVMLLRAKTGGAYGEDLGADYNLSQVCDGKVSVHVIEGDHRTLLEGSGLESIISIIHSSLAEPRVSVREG
Sequence of Beta Lactamase (Q932Y6 whole entry): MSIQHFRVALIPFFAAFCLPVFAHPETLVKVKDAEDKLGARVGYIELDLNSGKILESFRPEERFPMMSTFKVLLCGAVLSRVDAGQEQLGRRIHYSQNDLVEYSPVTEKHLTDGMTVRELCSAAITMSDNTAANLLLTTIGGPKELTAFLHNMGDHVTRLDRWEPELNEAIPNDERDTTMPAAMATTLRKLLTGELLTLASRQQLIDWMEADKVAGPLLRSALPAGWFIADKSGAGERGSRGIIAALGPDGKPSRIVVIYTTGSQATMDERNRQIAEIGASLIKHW
Sequence of 26S proteasome non-ATPase regulatory subunit 14 (O00487 whole entry): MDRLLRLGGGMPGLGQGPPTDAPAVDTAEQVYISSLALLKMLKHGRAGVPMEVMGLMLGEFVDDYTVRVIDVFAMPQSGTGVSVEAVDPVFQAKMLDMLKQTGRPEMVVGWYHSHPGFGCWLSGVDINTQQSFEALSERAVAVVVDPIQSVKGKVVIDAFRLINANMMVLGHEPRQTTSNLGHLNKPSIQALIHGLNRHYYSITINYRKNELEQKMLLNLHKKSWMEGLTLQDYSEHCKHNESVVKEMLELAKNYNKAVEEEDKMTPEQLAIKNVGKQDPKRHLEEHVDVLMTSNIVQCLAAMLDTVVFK
Sequence of 72 kDa type IV collagenase (P08253 whole entry): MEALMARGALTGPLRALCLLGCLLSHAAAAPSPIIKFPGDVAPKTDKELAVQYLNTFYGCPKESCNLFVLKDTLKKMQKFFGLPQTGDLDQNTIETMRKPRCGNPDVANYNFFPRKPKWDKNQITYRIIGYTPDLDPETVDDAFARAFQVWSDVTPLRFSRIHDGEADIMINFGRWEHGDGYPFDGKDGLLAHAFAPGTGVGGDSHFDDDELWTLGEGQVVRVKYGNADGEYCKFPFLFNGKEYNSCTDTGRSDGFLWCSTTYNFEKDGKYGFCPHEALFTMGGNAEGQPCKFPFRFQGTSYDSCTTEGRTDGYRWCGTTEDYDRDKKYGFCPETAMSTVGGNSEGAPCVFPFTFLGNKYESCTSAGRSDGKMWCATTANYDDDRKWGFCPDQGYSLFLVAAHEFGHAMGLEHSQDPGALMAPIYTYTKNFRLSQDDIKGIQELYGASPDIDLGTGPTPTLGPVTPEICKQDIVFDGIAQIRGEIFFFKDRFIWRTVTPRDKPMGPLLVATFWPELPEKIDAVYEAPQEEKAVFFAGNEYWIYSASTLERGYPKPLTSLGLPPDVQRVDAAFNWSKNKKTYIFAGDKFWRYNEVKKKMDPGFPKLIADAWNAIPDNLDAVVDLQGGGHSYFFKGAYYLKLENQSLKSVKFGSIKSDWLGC
Sequence of Nonstructural protein 1 (Q194T2 whole entry, the tested form may be a part): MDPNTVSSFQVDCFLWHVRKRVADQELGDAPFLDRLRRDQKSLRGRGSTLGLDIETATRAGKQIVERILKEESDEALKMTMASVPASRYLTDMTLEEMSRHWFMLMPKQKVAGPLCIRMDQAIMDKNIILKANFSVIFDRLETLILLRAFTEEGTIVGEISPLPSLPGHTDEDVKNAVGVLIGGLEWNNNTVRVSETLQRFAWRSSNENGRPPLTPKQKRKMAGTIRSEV
Sequence of Photoreceptor-specific nuclear receptor (Q9Y5X4 whole entry, the tested form may be a part): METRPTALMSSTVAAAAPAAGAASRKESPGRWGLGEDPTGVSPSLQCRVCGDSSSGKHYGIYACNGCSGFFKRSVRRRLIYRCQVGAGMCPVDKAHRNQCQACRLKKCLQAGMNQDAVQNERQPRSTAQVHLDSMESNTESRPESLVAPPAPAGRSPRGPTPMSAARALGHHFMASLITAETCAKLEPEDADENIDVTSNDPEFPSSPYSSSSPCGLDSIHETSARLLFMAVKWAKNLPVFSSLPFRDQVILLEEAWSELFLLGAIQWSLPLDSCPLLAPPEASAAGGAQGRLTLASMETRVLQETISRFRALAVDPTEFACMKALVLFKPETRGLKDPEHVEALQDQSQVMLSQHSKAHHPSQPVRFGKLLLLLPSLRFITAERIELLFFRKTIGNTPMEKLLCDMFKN
Sequence of Paired box protein Pax-8 (Q06710 whole entry): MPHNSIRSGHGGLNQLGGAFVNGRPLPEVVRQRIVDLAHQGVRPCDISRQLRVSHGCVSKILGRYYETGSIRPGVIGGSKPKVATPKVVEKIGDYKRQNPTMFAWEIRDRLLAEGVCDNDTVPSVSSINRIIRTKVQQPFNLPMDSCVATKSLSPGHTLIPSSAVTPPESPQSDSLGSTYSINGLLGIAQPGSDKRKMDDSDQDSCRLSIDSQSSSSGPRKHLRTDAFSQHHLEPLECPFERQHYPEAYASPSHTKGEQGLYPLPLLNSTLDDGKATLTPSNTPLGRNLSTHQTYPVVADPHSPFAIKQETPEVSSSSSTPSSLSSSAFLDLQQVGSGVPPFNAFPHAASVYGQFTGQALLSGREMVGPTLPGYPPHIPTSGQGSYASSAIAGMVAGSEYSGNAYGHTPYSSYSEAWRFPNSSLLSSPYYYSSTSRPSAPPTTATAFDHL

COc1ccc(OC)c2sc(N(CCCN(C)C)C(=O)CCS(=O)(=O)c3ccccc3)nc12
AC50 [1]: 4.77 µM (active) | IC50 [2]: 32.1 µM (inactive) | EC50 [3]: 4.32 µM (active) | IC50 [4]: 2.06 µM (active) | EC50 [5]: 6.44 µM (active)

Cc1nnc(SCc2nc3scc(-c4ccccc4)c3c(=O)[nH]2)s1
IC50 [6]: 85.3 µM (active) | IC50 [7]: 98.6 µM (active) | IC50 [8]: > 100 µM (inactive)

COc1ccc(NC(=O)COC(=O)CCCOc2ccc(Cl)cc2Cl)cc1
IC50 [9]: 83.3 µM (inactive)

COc1ccc(N2C(=O)C3C(C2=O)C(C(=O)c2ccccc2)N2CCCC32)cc1 (stereo not given)
IC50 [10]: 11 µM (active) | IC50 [11]: 31 µM (inactive)

CC(=O)N1CCc2cc(NN=C3C(=O)CCCC3=O)ccc21
IC50 [6]: 43.2 µM (active) | IC50 [7]: 30.2 µM (active) | IC50 [8]: > 100 µM (inactive)

c1ccc(CCNCCCOc2cccc3ccccc23)cc1
CC50 [12]: 75.9 µM (active) | IC50 [13]: 156 µM (active)

Cc1ccc(OCCn2cc(C(=S)N3CCCC3)c3ccccc32)cc1C
AC50 [14]: 72.9 µM (active)

NC(=O)CCC(C(=O)O)N1C(=O)c2ccc(O)cc2C1=O (stereo not given)
IC50 [10]: 16.9 µM (active) | IC50 [11]: 23.9 µM (inactive) | EC50 [15]: > 195 µM (not active)

Nc1nc(N)nc(-c2cc(O)ccc2O)n1
IC50 [16]: 5.7 µM (active)

CC(C)Cn1c(SCC(=O)N2CCc3ccccc3C2)nc2cc(Cl)ccc2c1=O
EC50 [17]: > 53 µM (inactive) | IC50 [18]: 6.92 µM (active) | AC50 [19]: 7.24 µM (active) | IC50 [20]: 6.45 µM (active)

Fc1ccccc1CN=C(S)Nc1ccc(Cl)cc1
IC50 [20]: 14.8 µM (active)

CC(=NNC(=S)N1CCCCCC1)c1ccccn1
AC50 [21]: 0.545 µM (active) | AC50 [22]: 3.49 µM (active) | AC50 [14]: 4.98 µM (active) | IC50 [23]: 3 µM (active)

Cc1cc(C)c(S(=O)(=O)N2CCN(C(=O)c3ccccc3OCc3c(C)noc3C)CC2)c(C)c1
AC50 [14]: 91.5 µM (active)

CCOC(=O)[C@]12Cc3cc(Cl)ccc3[C@H]1N(C1CCCCC1)C(=O)c1cc(OC)ccc12
IC50 [24]: 2.71 µM (active) | IC50 [25]: 3.04 µM (active) | IC50 [2]: 16.8 µM (inactive) | IC50 [4]: 11.7 µM (inactive)

— ChEMBL document CHEMBL1201862, “PubChem BioAssay data set” (2004)
